These results are taken from PubChem BioAssay AID652132 (Broad Institute, 2013).

By inhibition is commonly meant the change of the read-out against control, counted positive when it falls.

The test system of this test is Signal transducer and activator of transcription 1 (STAT1), rat. The test can be described thus: STAT1 level and phosphorylation inhibition – cell-based, rat, cytokine stimulus, time course, mechanism study, late-stage follow-up (AID 652132). Particulars: INS-1E cells, cytokine-induced STAT1/pSTAT1 western blot, at 10 µM, stronger effect = higher value. On the technique in general: In western blotting, separated proteins are transferred to a membrane and probed.

Consider `C[C@@H]1CN([C@@H](C)CO)C(=O)c2cccc(NC(=O)Nc3cccc4ccccc34)c2O[C@H]1CN(C)S(=O)(=O)c1ccc2c(c1)OCCO2`, for which the p-STAT1 inhibition, 24 h was 65%. Where the note is “measured here: p-STAT1 inhibition 8 h”, this molecule returned an inhibition of 97%. For the same molecule, the inhibition (measured here: p-STAT1 inhibition 12 h) was found to be 80%. Moreover, the inhibition (measured here: total STAT1 inhibition 8 h) stood at 69%. Besides, the inhibition (measured here: total STAT1 inhibition 12 h) turned out to be 53%. For the same molecule, where the note is “measured here: total STAT1 inhibition 24 h”, the inhibition stood at 43%.
